In patent publication US11141391B2, “Biomarkers for risk assessment, diagnosis and target microbiome and intestinal homeostasis for prevention and treatment of amyotrophic lateral sclerosis” (Rush University Medical Center, priority 2014, dated 2021):
“Also recorded” adds a separate entry of the source.

Tests used:
[1] = test system: G93A amyotrophic lateral sclerosis model mice; experiment: Butyrate treated mice model: oral sodium butyrate in drinking water, body weight and survival; assay type: in vivo, mouse
Text: Nine G93A mice were divided into a […] (n=4) and a butyrate group (n=5). Butyrate mice started to drink 2% sodium butyrate in the drinking water bottle from age 63 days, without treatment mice drank regular water mice. Without treatment mice died on day 127, 133, 143, 155 separately.
Mice were divided into control and butyrate group. Butyrate group mice were given 2% sodium butyrate (Sigma, St. Louis, Mo.) water ad libitum from age 63 days. The untreated control group was maintained on tap water throughout the experiment. Without treatment mice died on day 127, 133, 143, 155 separately.

[2] = test system: ALS patients; details: cited from earlier work

Compound	body weight loss ([1]; 2% sodium butyrate in drinking water ad libitum from age 63 days, n=5, vs untreated G93A mice n=4 (FIG. 4A))	additional survival time of butyrate mice ([1]; 2% sodium butyrate in drinking water from age 63 days, relative to untreated mice that died on day 127-155)	survival ([1]; 2% sodium butyrate in drinking water from age 63 days, untreated mice died on day 127, 133, 143, 155 (FIG. 4B))	patient life span ([2]; FDA approved treatment)	relief of symptoms [2]
CCCC(=O)[O-].[Na+] [sodium butyrate]	prevents body weight loss	survived at least one additional month or longer	extends survival time; also recorded: All the butyrate mice survived	–	–
Nc1nc2ccc(OC(F)(F)F)cc2s1 [Riluzole]	–	–	–	extends patient life span for only a few months	does not relieve symptoms
